From patent US20050085413A1, “Dimeric pharmaceutical compounds and their use” (priority 2001, published 2005)
Values after ≈ are worked out from the molar mass of the structure shown. Values joined by “and” are separate entries in the source; they are usually repeats but may differ in a detail not shown here. Identical values can stand only once. Counter-ions that a name gives are not always drawn.

Legend:
Assay in all cases: Plaque reduction assay (PRA) in MDCK cells
A/WSN/33 BVLV09 (H1N1) = type: cell-based, influenza virus; settings: plaque numbers reduced by 50%; for EC50: Influenza A virus, MDCK, read-out: EC50 ng/ml PRA A/WSN
[1] = test system: A/Victoria/3/75 BVLV017 (H3N2); type: cell-based, influenza virus; settings: plaque numbers reduced by 50%
[2] = test system: A/Sydney/5/97 BVLV015 (H3N2); type: cell-based, influenza virus; settings: plaque numbers reduced by 50%; for EC50: Influenza A virus, MDCK, read-out: EC50 ng/ml PRA A/Syd
[3] = test system: A/New Caledonia/20/99 BVLV008 (H1N1); type: cell-based, influenza virus; settings: plaque numbers reduced by 50%; for EC50: Influenza A virus, H1N1, MDCK, read-out: EC50 ng/ml PRA A/New
[4] = test system: A/Panama/2007/99 BVLV008 (H3N2); type: cell-based, influenza virus; settings: plaque numbers reduced by 50%; for EC50: Influenza A virus, H3N2, MDCK, read-out: EC50 ng/ml PRA A/Pan
[5] = test system: A/Bayern/7/95 BVL006 (H1N1); type: cell-based; settings: Influenza A virus, plaque numbers reduced by 50%, read-out: EC50 ng/ml PRA A/Bay
B/Harbin/7/95 BVLV008 = type: cell-based, influenza virus; settings: read-out: EC50 ng/ml PRA B/Harb
B/Hong Kong/5/72 BVLV012 = type: cell-based, influenza virus; settings: for EC50: MDCK, read-out: EC50 ng/ml PRA B/HongK
B/Victoria/1/67 = type: cell-based, influenza virus; settings: plaque numbers reduced by 50%, bis(trifluoroacetic acid salt)
[6] = test system: B/Yamanashi/166/98 BVLV007; type: cell-based, influenza virus; settings: plaque numbers reduced by 50%; for EC50 ng/ml PRA B/Yam: B/Yamanashi/166/98 BVLV007

| Compound | EC50 (A/WSN/33 BVLV09 (H1N1)) [ng/mL] | EC50 ng/ml PRA A/WSN (A/WSN/33 BVLV09 (H1N1)) [ng/mL] | EC50 ([1]; Influenza A virus, H3N2, MDCK, read-out: EC50 ng/ml PRA A/Vic) [ng/mL] | EC50 [2] [ng/mL] | EC50 [3] [ng/mL] | EC50 ng/ml PRA A/New [3] [ng/mL] | EC50 [4] [ng/mL] | EC50 ng/ml PRA A/Pan [4] [ng/mL] | EC50 [5] [ng/mL] | EC50 (B/Harbin/7/95 BVLV008) [ng/mL] | EC50 (B/Hong Kong/5/72 BVLV012) [ng/mL] | EC50 ng/ml PRA A/Syd [2] [ng/mL] | EC50 ng/ml PRA B/Vic (B/Victoria/1/67) | EC50 ng/ml PRA B/Yam [6] | EC50 ng/ml PRA A/Vic [1] [ng/mL] | EC50 ng/ml PRA B/HongK (B/Hong Kong/5/72 BVLV012; B/Hong Kong/5/72 BVLV012, plaque numbers reduced by 50%) [ng/mL] | EC50 ([6]; unidentified influenza virus, MDCK, read-out: EC50 ng/ml PRA B/Yam, B/Yamanashi/166/98 BVLV007) [ng/mL] |
| --- | --- | --- | --- | --- | --- | --- | --- | --- | --- | --- | --- | --- | --- | --- | --- | --- | --- |
| CC(=O)N[C@H]1[C@H]([C@H](O)[C@H](O)CO)OC(C(=O)O)=C[C@@H]1NC(=N)N [Compound A] | 56 (≈ 169 nM) | > 100 | 5.5 (≈ 16.6 nM) | 2.4 (≈ 7.22 nM) | 0.27 (≈ 0.812 nM) | 0.23 (≈ 0.692 nM) | 2.7 (≈ 8.12 nM) | 3 (≈ 9.03 nM) | 35 (≈ 105 nM) | 0.19 (≈ 0.572 nM) | 21 (≈ 63.2 nM) |  |  |  |  |  |  |
| CC(=O)N[C@H]1[C@H]([C@H](OC(=O)NCCCCCCCCCCCCNC(=O)O[C@@H]([C@@H]2OC(C(=O)O)=C[C@H](NC(=N)N)[C@H]2NC(C)=O)[C@H](O)CO)[C@H](O)CO)OC(C(=O)O)=C[C@@H]1NC(=N)N.O=C(O)C(F)(F)F.O=C(O)C(F)(F)F [Example 2, (2R,3R,4S)-3-(acetylamino)-2-{(1R,20R,21R)-20-((2R,3R,4S)-3-(acetylamino)-4-{[amino(imino)methyl]amino}-6-carboxy-3,4-dihydro-2H-pyran-2-yl)-1-[(1R)-1,2-dihydroxyethyl]-21,22-dihydroxy-3,18-dioxo-2,19-dioxa-4,17-diazadocos-1-yl}-4-{[amino(imino)methyl]amino}-3,4-dihydro-2H-pyran-6-carboxylic acid bis(trifluoroacetic acid salt)] |  |  |  |  |  |  |  |  |  |  |  | <0.0001 | 0.04 ng/mL and 0.05 ng/mL | <0.0001 ng/mL |  |  |  |
| CC(=O)N[C@H]1[C@H]([C@H](OC(=O)NCCCCCCCCCCCCCCNC(=O)O[C@@H]([C@@H]2OC(C(=O)O)=C[C@H](NC(=N)N)[C@H]2NC(C)=O)[C@H](O)CO)[C@H](O)CO)OC(C(=O)O)=C[C@@H]1NC(=N)N.O=C(O)C(F)(F)F.O=C(O)C(F)(F)F [Example 3, (2R,3R,4S)-3-(acetylamino)-2-{(1R,22R,23R)-22-((2R,3R,4S)-3-(acetylamino)-4-{[amino(imino)methyl]amino}-6-carboxy-3,4-dihydro-2H-pyran-2-yl)-1-[(1R)-1,2-dihydroxyethyl]-23,24-dihydroxy-3,20-dioxo-2,21-dioxa-4,19-diazatetracos-1-yl}-4-{[amino(imino)methyl]amino}-3,4-dihydro-2H-pyran-6-carboxylic acid bis(trifluoroacetic acid salt)] |  |  |  |  |  |  |  |  |  |  |  | 0.000429 | 0.009 ng/mL and 0.01 ng/mL | <0.0001, <0.0001 ng/ml | 0.0023 | <0.0001 |  |
| CC(=O)N[C@H]1[C@H]([C@H](OC(=O)NCCCCCCCCCCCCCNC(=O)O[C@H](C(O)CO)[C@@H]2OC(C(=O)O)=C[C@H](NC(=N)N)[C@H]2NC(C)=O)[C@H](O)CO)OC(C(=O)O)=C[C@@H]1NC(=N)N (stereo partly drawn) [Example 4, (2R,3R,4S)-3-(acetylamino)-2-{(1R,21R,22R)-21-((2R,3R,4S)-3-(acetylamino)-4-{[amino(imino)methyl]amino}-6-carboxy-3,4-dihydro-2H-pyran-2-yl)-1-[(1R)-1,2-dihydroxyethyl]-22,23-dihydroxy-3,19-dioxo-2,20-dioxa-4,18-diazatricos-1-yl}-4-{[amino(imino)methyl]amino}-3,4-dihydro-2H-pyran-6-carboxylic acid bis(trifluoroacetic acid salt)] | < 0.0001 |  |  | < 0.0001 | 0.043 |  | < 1e-05 |  |  |  | 0.06 |  |  |  |  |  | < 0.0001 |
